Data on 5 molecules can be found in patent US20210017206A1, “PYRIDINONE AND PYRIMIDINONE PHOSPHATES AND BORONATES USEFUL AS ANTIBACTERIAL AGENTS” (Pfizer Inc., priority 2018, published 2021).

SMILES strings stand for the structures. Values after ≈ are worked out from the molar mass of the structure shown.

For orientation: IC50 means the concentration at which inhibition is half-maximal. Low values mean inhibition by little substance, high ones a need for much substance. Usually MIC stands for the lowest concentration found to suppress growth.

Assay [1] has as its target T1, Pseudomonas aeruginosa LpxC enzyme (Pseudomonas aeruginosa, UniProt P47205).
T1 construct: made in house; host or cells: E. coli
Briefly: IC50 assay, LpxC enzyme from P. aeruginosa (PA LpxC enzyme IC50). The class given is biochemical. Particulars: P. aeruginosa LpxC 0.1 nM, 25° C., 1 hour, pH 8.0. The method, then:
In order to assess the compounds biological activity, selected in vitro assays were conducted on selected compounds. One of the assays measured the compounds ability to disrupt the synthesis of lipopolysaccharide, LPS, which is a component of the outer membrane of Gram-negative bacteria. Disruption of this synthesis is lethal to the bacteria. The assay determined the compound's ability to inhibit LpxC, which is the first enzyme in the biosynthetic pathway for LPS (measured as IC50). Additionally, MICs (minimal inhibitory concentrations) were determined for several bacteria. The specific protocols are described below:
A) IC50 Assay, LpxC Enzyme from P. aeruginosa (Labeled as PA LpxC Enzyme IC50):
At the end of 1 hour, 5 ul of 1 N HCl was added to stop the enzyme reaction, the plates were centrifuged, and then processed with the BioTrove Rapidfire HTMS Mass Spectrometry System. A no-enzyme control was used in calculating the IC50 values from the percent conversion values.

Assay [2] relates to Acinetobacter baumannii/haemolyticus, multidrug-resistant clinical isolate (AB-3167). Briefly: MIC determination (CLSI), AB-3167. The assay is classed as cell-based. The settings on record: lower of duplicate values. The method, then:
(§1) B) MIC determinations: The in vitro antibacterial activity of parent compounds of those described in the Examples was evaluated by minimum inhibitory concentration (MIC) testing according to Clinical and Laboratory Standards Institute (CLSI). See: Clinical and Laboratory Standards Institute. Methods for Dilution Antimicrobial Susceptibility Tests for Bacteria that Grow Aerobically; Approved Standard-Eighth Edition. CLSI document M7-A8 [ISBN 1-56238-689-1]. Clinical and Laboratory Standards Institute, 940 West Valley Road, Suite 1400, Wayne, Pa. 19087-1898 USA, 2006; also Clinical and Laboratory Standards Institute. Performance Standards for Antimicrobial Susceptibility Testing; Twentieth Informational Supplement. CLSI document M100-S20 [ISBN1-56238-716-2]. Clinical and Laboratory Standards Institute.
(§2) The MIC determination is a standard laboratory method for evaluating the antibacterial activity of a compound. The MIC represents the lowest drug concentration that inhibits visible growth of bacteria following overnight incubation. […] Typically, the drug concentration range is broken down into 2-fold increments (e.g. 0.06 μg/mL, 0.12 μg/mL. 0.25 μg/mL, 0.50 μg/mL, 1.0 μg/mL, etc.) and the various drug concentrations are all individually incubated overnight with approximately the same number of bacteria. The MIC is then determined by visually inspecting the drug effect at each concentration, and identifying the lowest drug concentration that has inhibited bacterial growth as compared to the drug free control. Typically, bacteria continue to grow at drug concentrations lower than the MIC and don't grow at concentrations at and above the MIC.
(§3) The MIC values described in Table 2 below were derived from assays wherein each test compound was evaluated in duplicate. In cases where the duplicate values varied by 0-2-fold, the lower of the two values was reported below. Generally speaking, if the duplicate values varied by more than 2-fold, the assay was considered non-valid and was repeated until the variation between duplicate runs was <2-fold. In line with the CLSI guidelines referred to above, both control organisms and reference compounds were utilized in each MIC assay to provide proper quality control. MIC values generated with these control organisms and reference compounds were required to fall within a defined range for the assay to be considered valid and be included herein. Those skilled in the art will recognize that MIC values can and do vary from experiment to experiment. […] While a single MIC is reported for each compound and each microorganism, the reader should not conclude that each compound was only tested once. Several of the compounds were subjected to multiple tests. The data reported in Table 2 is reflective of the compounds relative activity and different MICs may have been generated on these occasions in line with the guidelines described above.
(§4) The following bacterial strains were used in these MIC determinations:
2) Acinetobacter baumannii/haemolyticus: Multidrug-resistant clinical isolate labeled as AB-3167 in Table 2;

Assay [3] concerns Escherichia coli EC-1: VOGEL, mouse virulent. As to the kind of experiment: MIC determination (CLSI), EC-1. The class given is cell-based. The settings on record: read-out: EC-1 MIC. The protocol:
as §1, §2, §3, §4
3) Escherichia coli EC-1: VOGEL, mouse virulent labeled as EC-1 in Table 2;

Assay [4] concerns Pseudomonas aeruginosa UI-18, wild-type (PA-7). Briefly: MIC determination (CLSI), PA-7. The class given is cell-based. The settings on record: lower of duplicate values. The protocol: as §1, §2, §3, §4
1) Pseudomonas aeruginosa UI-18: Wild-type, labeled as PA-7 in Table 2;

T1 sequence (P47205 whole entry): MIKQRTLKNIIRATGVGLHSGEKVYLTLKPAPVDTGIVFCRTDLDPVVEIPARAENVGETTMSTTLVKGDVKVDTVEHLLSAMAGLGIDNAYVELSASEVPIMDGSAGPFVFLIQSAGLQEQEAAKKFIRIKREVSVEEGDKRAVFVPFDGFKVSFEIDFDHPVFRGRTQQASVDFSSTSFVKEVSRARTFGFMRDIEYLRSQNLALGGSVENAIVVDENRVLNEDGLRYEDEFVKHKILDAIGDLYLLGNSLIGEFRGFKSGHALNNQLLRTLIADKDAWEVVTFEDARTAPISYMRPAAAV

`COc1ccc(-c2ccn(CC[C@](C)(C(=O)NO)S(C)(=O)=O)c(=O)c2)c(F)c1F` [(2R)-4-[4-(2,3-difluoro-4-methoxyphenyl)-2-oxopyridin-1(2H)-yl]-N-hydroxy-2-methyl-2-(methylsulfonyl)butanamide]: in assay [1], the IC50 came out at 0.166 nM. For the same molecule, the MIC was > 64 µg/mL in assay [2], 0.015 µg/mL (≈ 0.0348 µM) in assay [3] and 1 µg/mL (≈ 2.32 µM) in assay [4].

`C[C@@](CCn1ccc(-c2ccc(-c3nccs3)cc2)cc1=O)(C(=O)NO)S(C)(=O)=O` [(2R)-N-hydroxy-2-methyl-2-(methylsulfonyl)-4-{2-oxo-4-[4-(1,3-thiazol-2-yl)phenyl]pyridin-1(2H)-yl}butanamide] came in with an IC50 in assay [1] of 0.176 nM. Also, the values for the MIC in assay [2], in assay [3] and in assay [4] were > 64 µg/mL, 0.06 µg/mL (≈ 0.134 µM) and 0.5 µg/mL (≈ 1.12 µM), respectively.

On to `C[C@@](CCn1cnc(-c2ccc(-n3nccn3)cc2)cc1=O)(C(=O)NO)S(C)(=O)=O` [(2R)-N-hydroxy-2-methyl-2-(methylsulfonyl)-4-{6-oxo-4-[4-(2H-1,2,3-triazol-2-yl)phenyl]pyrimidin-1(6H)-yl}butanamide], for which the MIC in assay [2] is > 64 µg/mL; in assay [3], 0.06 µg/mL (≈ 0.139 µM); in assay [4], 0.5 µg/mL (≈ 1.16 µM).

With `COc1cnn(-c2ccc(-c3ccn(CC[C@](C)(C(=O)NO)S(C)(=O)=O)c(=O)c3)cc2)n1` [(2R)-N-hydroxy-4-{4-[4-(4-methoxy-2H-1,2,3-triazol-2-yl)phenyl]-2-oxopyridin-1(2H)-yl}-2-methyl-2-(methylsulfonyl)butanamide], the IC50 in assay [1] is 0.125 nM. The MIC in assay [2] is > 64 µg/mL; in assay [3] it was 0.03 µg/mL (≈ 0.065 µM); in assay [4], 0.5 µg/mL (≈ 1.08 µM).

Take `C[C@@](CCn1ccc(-c2ccc(-n3nccn3)cc2)cc1=O)(C(=O)NO)S(C)(=O)=O` [(R)-4-(4-(4-(2H-1,2,3-Triazol-2-yl)phenyl)-2-oxopyridin-1(2H)-yl)-N-hydroxy-2-methyl-2-(methylsulfonyl)butanamide]: the MIC in assay [2] was > 64 µg/mL; in assay [3], 0.06 µg/mL (≈ 0.139 µM); in assay [4], 0.5 µg/mL (≈ 1.16 µM).
